Data published in publication PMC8143456 (Microorganisms, 2021).
Where two headings read alike, the source gives them in different places.

Columns and labels:
[1] = test system: SARS-CoV-2; conditions: Vero E6 cells ref 31; cited from earlier work
[2] = molecular target: SARS-CoV-2 nsp12 (RdRp) (Severe acute respiratory syndrome coronavirus 2, UniProt P0DTD1); conditions: nsp12, 50 µM compound vs DMSO
[3] = test system: SARS-CoV-2 3CL; conditions: enzyme-inhibition experiments ref 31; read-out: IC50, antiprotease activity against SARS-CoV-2 3CL; cited from earlier work
[4] = test system: SARS-CoV-2 pseudovirus; test: microbe, parasite or virus in culture; assay type: cell-based; conditions: for inhibition at 1.1 µM / inhibition at 3.3 µM / inhibition at 10 µM / inhibition at 30 µM: Severe acute respiratory syndrome-related coronavirus, Huh7.5 cells, vs untreated sample, read-out: SARS-CoV-2 Pseudovirus Entry Inhibition (%)
[5] = Cytotoxicity in Calu3 cells; conditions: human
[6] = molecular target: SARS-CoV-2 nsp5 (3CL protease) (Severe acute respiratory syndrome coronavirus 2, UniProt P0DTD1); conditions: nsp5, 50 µM compound vs DMSO
[7] = molecular target: SARS-CoV-2 nsp14 (Severe acute respiratory syndrome coronavirus 2, UniProt P0DTD1); conditions: nsp14, 50 µM compound vs DMSO
[8] = molecular target: SARS-CoV-2 RNA polymerase complex (nsp12/nsp7/nsp8) (Severe acute respiratory syndrome coronavirus 2, UniProt P0DTD1); test: SARS-CoV-2 RdRp primer extension assay; assay type: biochemical; conditions: 14-nucleotide RNA product on gel
[9] = test system: SARS-CoV-2; test: Time-of-drug-addition assay in Vero cells; assay type: cell-based; conditions: compound at EC90, Vero cells, MOI 0.1
[10] = test system: SARS-CoV-2; test: SARS-CoV-2 antiviral activity assay in Calu-3 cells; assay type: cell-based
[11] = test system: SARS-CoV-2; test: microbe, parasite or virus in culture; assay type: cell-based; conditions: for EC50: read-out: Antiviral Activity against SARS-CoV-2 Vero EC50; for EC90: read-out: Antiviral Activity against SARS-CoV-2 Vero EC90; for inhibition at 20 µM: read-out: inhibition of SARS-CoV-2 in the initial antiviral evaluation assay
[12] = MTS cytotoxicity assay in Vero cells; conditions: African green monkey
[13] = test system: SARS-CoV-2 3CL protease (nsp5); parameters: method as in PMID 32746637; conditions: previous report ref 29; read-out: IC50, enzymatic activity of SARS-CoV-2 3CL protease (nsp5); cited from earlier work
[14] = Severe acute respiratory syndrome coronavirus 2, human Calu-3 cells, read-out: Antiviral Activity against SARS-CoV-2 Calu-3 EC50
[15] = Severe acute respiratory syndrome coronavirus 2, human Calu-3 cells, read-out: Antiviral Activity against SARS-CoV-2 Calu-3 EC90
[16] = Severe acute respiratory syndrome coronavirus 2, 48 h, Vero cells, MOI 0.1, virus yield 2 days post-treatment
[17] = Severe acute respiratory syndrome coronavirus 2, Vero
[18] = Severe acute respiratory syndrome coronavirus 2, Vero, 48 h

Row | SMILES | EC50 [1] | IC50 [3] | inhibitory activity on SARS-CoV-2 cell entry (in words) [4] | inhibition at 1.1 µM [4] | inhibition at 3.3 µM [4] | inhibition at 10 µM [4] | inhibition at 30 µM [4] | inhibition of SARS-CoV-2 RdRp activity (in words) [8] | time of addition post-infection up to which replication is significantly inhibited [9] | EC50 [10, 14] | EC90 [10, 15] | EC50 [11, 16] | EC90 [11, 16] | inhibition at 20 µM [11, 17] | CC50 [5] | further results
1 | O=c1cc(-c2ccccc2)oc2cc(O)c(O)c(O)c12 [Baicalein, baicalein] | 2.94 µM | 0.94 µM | no inhibitory activity | -2% | -1.9% | 3.9% | 14.6% | more potent inhibition of SARS-CoV-2 RdRp activity compared to baicalin | up to 8 h | 1.2 ± 0.03 µM | 6.2 ± 0.04 µM | 4.5 ± 0.2 µM | 7.6 ± 0.3 µM | 99.8% |  | ΔTm [2]: 3.9 °C; CC50 ([5]; Calu3 cells): 91 ± 0.05 µM; ΔTm [6]: 0.9 °C; ΔTm [7]: 1.5 °C
2 | O=C(O)[C@H]1O[C@@H](Oc2cc3oc(-c4ccccc4)cc(=O)c3c(O)c2O)[C@H](O)[C@@H](O)[C@@H]1O [Baicalin, baicalin] | 27.9 µM | 6.41 µM | no inhibitory activity | -12.1% | -11.9% | -6.6% | -3.3% | inhibit the activity of the SARS-CoV-2 RdRp | up to 6 h | 8 ± 0.11 µM | 15.1 ± 0.2 µM | 9 ± 0.08 µM | 15.8 ± 0.2 µM | 98% | > 100 µM | CC50 at 4 days [12]: > 100 µM; IC50 [13]: 34.7 µM
3 | CCC(CC)COC(=O)[C@H](C)N[P@](=O)(OC[C@H]1O[C@@](C#N)(c2ccc3c(N)ncnn23)[C@H](O)[C@@H]1O)Oc1ccccc1 [Remdesivir, reference compound] |  |  |  |  |  |  |  |  |  |  |  |  |  |  | > 100 µM | EC50 ([10]; Severe acute respiratory syndrome coronavirus 2, Calu-3, read-out: Antiviral Activity against SARS-CoV-2 Calu-3 EC50): 0.14 ± 0.02 µM; EC90 ([10]; Severe acute respiratory syndrome coronavirus 2, Calu-3, read-out: Antiviral Activity against SARS-CoV-2 Calu-3 EC90): 0.5 ± 0.03 µM; EC50 [11, 18]: 1 ± 0.1 µM; EC90 [11, 18]: 3.3 ± 0.3 µM
